Series [1] in a line: Dissociation constant, pKa of the compound by UV spectrometric titration method. Format: physicochemical.
Series [2] has as its target T1, Toll-like receptor 9 (Homo sapiens, UniProt Q9NR96).
T1 sequence (Q9NR96 whole entry): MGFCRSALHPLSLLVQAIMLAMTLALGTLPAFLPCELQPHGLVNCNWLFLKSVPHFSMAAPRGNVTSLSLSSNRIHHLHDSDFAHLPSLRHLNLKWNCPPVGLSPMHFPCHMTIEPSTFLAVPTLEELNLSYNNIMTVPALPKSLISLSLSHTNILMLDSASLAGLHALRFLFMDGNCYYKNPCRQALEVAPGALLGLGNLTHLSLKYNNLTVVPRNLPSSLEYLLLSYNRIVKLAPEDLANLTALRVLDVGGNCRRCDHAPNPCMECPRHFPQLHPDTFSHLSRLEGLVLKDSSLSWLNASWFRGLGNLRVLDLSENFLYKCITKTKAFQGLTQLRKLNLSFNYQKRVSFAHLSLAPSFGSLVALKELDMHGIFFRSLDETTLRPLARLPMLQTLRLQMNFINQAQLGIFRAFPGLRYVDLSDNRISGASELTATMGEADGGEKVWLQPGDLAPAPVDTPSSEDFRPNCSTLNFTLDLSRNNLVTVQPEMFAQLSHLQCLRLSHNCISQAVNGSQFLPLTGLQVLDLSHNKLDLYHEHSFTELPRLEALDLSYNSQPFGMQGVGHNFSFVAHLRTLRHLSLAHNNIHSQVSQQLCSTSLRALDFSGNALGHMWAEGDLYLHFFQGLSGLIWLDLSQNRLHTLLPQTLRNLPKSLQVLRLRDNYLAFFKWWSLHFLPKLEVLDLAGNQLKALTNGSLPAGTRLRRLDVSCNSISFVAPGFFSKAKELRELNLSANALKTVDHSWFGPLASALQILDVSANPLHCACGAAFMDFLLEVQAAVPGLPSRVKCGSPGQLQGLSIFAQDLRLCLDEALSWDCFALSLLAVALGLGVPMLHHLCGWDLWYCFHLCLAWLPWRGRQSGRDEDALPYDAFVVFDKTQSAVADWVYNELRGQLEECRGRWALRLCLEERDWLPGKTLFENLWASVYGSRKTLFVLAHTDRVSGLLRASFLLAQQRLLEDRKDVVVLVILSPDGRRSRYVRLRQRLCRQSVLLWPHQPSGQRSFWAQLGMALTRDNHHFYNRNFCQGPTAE
Briefly: Antagonist activity at human TLR9 expressed in human PBMC cells assessed as inhibition of ODN2216 stimulated IFNalpha level preincubated for 30 mins followed by stimulation and measured after 20 hrs by AlphaLISA method. Format: cell-based. Background: In Alpha technology, singlet oxygen from a donor bead excites a nearby acceptor bead.

A short description of series [3]: Clearance in Balb/c mouse at 10 mg/kg, po or 1mg/kg, iv administered as cassette dose measured upto 24 hrs by LC/MS/MS analysis. Conditions: in vivo. Format: ADME, organism-based.
Series [4] has as its target T1, Toll-like receptor 9. In words: Antagonist activity at human TLR9 expressed in human whole blood assessed as inhibition of ODN2216 stimulated IFNalpha level preincubated for 30 mins followed by stimulation and measured after 20 hrs by AlphaLISA method. Format: tissue-based.
The nature of series [5]: Dose normalized Cmax in Balb/c mouse at 10 mg/kg, po and 1 mg/kg, iv administered as cassette dose measured upto 24 hrs by LC/MS/MS analysis. Format: ADME, organism-based. The following applies: in vivo.
A short description of series [6]: Drug exposure in 129Sv mouse blood at 0.1 mg/kg, po by LC-MS/MS analysis. The class given is ADME, organism-based. Conditions: in vivo, read-out: Drug uptake.
Series [7] can be described thus: Octanol/water partition coefficient, logD of compound at pH 7.4 measured after 4 hrs by shake flask method. The class given is physicochemical.
Another series has as its target Toll-like receptor 4 (Homo sapiens, UniProt O00206). In words: Antagonist activity at human TLR4 expressed in human whole blood assessed as inhibition of LPS stimulated TNF level preincubated for 30 mins followed by stimulation and measured after 20 hrs by multiplate reader assay. The class given is tissue-based.
A further series concerns the target T2, Toll-like receptor 7 (Homo sapiens, UniProt Q9NYK1).
T2 sequence (Q9NYK1 whole entry): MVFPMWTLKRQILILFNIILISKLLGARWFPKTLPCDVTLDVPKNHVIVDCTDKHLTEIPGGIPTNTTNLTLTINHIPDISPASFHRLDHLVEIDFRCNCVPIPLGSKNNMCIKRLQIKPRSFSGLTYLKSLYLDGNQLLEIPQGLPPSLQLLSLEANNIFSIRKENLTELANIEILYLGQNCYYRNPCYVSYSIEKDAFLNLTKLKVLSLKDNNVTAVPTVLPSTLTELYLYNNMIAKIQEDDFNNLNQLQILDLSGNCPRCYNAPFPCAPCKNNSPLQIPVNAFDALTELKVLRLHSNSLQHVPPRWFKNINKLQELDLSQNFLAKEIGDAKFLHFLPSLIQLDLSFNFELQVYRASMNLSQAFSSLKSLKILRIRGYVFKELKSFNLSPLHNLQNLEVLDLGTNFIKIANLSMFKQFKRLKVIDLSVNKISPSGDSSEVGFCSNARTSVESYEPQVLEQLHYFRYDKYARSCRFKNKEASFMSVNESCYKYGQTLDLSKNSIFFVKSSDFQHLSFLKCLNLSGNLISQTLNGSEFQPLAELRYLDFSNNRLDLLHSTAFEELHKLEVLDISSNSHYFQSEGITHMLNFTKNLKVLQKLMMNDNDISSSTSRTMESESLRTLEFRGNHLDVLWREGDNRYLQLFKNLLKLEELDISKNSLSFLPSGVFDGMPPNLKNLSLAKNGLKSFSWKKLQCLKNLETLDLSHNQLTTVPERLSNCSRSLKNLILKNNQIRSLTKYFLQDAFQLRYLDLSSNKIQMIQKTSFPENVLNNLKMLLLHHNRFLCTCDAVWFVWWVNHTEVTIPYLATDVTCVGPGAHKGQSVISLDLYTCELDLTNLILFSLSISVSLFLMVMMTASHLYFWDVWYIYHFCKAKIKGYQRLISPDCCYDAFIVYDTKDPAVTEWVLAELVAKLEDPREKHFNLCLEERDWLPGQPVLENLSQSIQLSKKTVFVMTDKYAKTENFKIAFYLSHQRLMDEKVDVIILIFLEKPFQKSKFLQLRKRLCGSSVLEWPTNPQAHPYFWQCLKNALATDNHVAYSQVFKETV
In words: Antagonist activity at human TLR7 expressed in human whole blood assessed as inhibition of ssRNA stimulated IFNalpha level preincubated for 30 mins followed by stimulation and measured after 20 hrs by AlphaLISA method. The class given is tissue-based.

For series [8], the target named is Voltage-gated inwardly rectifying potassium channel KCNH2 (Homo sapiens, UniProt Q12809). In words: Inhibition of human ERG. The class given is toxicity.
Sequence of Voltage-gated inwardly rectifying potassium channel KCNH2 (Q12809 whole entry): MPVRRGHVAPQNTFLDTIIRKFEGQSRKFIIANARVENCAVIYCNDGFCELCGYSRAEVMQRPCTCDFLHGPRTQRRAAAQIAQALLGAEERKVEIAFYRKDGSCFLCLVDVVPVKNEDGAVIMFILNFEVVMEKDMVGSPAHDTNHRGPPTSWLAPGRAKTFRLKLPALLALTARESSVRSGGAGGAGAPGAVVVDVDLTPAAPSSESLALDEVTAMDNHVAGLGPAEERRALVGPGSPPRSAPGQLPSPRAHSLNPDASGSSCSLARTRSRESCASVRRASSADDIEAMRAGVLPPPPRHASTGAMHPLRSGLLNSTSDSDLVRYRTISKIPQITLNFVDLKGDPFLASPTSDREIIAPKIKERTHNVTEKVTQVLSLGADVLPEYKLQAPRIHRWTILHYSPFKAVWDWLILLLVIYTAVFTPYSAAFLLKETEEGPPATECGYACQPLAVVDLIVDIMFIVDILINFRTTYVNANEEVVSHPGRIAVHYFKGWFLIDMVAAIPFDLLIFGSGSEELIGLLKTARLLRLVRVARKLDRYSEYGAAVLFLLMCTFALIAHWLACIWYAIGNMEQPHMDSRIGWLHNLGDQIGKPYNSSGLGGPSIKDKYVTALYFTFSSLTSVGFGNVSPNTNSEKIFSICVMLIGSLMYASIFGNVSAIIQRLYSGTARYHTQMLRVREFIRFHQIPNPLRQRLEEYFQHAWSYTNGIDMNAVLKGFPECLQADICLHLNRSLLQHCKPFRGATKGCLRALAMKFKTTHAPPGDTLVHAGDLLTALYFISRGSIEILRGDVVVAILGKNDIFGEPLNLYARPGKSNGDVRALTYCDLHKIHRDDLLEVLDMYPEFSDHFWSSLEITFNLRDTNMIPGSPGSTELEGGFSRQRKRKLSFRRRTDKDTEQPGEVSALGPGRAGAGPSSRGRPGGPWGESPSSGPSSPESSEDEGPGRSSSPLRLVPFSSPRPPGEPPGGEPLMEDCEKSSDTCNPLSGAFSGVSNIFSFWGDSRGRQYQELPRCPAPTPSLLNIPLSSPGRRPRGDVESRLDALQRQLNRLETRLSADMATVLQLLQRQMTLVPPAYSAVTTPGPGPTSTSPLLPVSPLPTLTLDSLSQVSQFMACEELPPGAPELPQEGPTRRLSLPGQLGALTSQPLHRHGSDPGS
Series [9] is described as follows: Volume of distribution at steady state in Balb/c mouse at 10 mg/kg, po or 1 mg/kg, iv administered as cassette dose measured upto 24 hrs by LC/MS/MS analysis. The class given is ADME, organism-based. Conditions: in vivo, read-out: Vdss.
Series [10] is described as follows: Dose normalized AUC in Balb/c mouse at 10 mg/kg, po and 1 mg/kg,iv administered as cassette dose measured upto 24 hrs by LC/MS/MS analysis. The class given is ADME, organism-based. Also on record: dose 10 mg/kg, time <=24. The following applies: in vivo.
In another series the target is Cytochrome P450 3A4 (Homo sapiens, UniProt P08684). In words: Inhibition of CYP3A4 (unknown origin). The class given is ADME.
Sequence of Cytochrome P450 3A4 (P08684 whole entry): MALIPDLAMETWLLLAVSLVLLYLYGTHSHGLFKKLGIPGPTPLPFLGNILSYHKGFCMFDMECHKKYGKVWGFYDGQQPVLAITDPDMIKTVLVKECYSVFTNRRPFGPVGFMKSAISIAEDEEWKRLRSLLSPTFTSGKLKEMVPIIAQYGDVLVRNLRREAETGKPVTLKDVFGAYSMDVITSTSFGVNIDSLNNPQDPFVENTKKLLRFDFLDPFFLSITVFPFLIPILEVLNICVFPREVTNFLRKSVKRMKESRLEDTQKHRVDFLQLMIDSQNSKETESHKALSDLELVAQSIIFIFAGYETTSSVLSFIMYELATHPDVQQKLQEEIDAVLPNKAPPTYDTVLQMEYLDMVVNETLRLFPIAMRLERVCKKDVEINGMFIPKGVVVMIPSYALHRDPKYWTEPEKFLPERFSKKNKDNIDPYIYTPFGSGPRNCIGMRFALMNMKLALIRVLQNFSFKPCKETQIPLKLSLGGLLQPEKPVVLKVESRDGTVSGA

Bounds are passed on as bounds.

Consider one molecule from ChEMBL document CHEMBL5046316, “Structure-Based Optimization of a Fragment-like TLR8 Binding Screening Hit to an In Vivo Efficacious TLR7/8 Antagonist” (ACS Med Chem Lett, 2022).

As usually defined, the pKa is the pH at which an ionisable group is half protonated. A high value points to a group that holds its proton tightly. Broadly, the IC50 is the concentration at which inhibition is half-maximal. As a reminder, the logD is the decadic logarithm of the distribution of all forms, ionised or not, between an organic phase and buffer at a given pH.

Sequence of Toll-like receptor 4 (O00206 whole entry): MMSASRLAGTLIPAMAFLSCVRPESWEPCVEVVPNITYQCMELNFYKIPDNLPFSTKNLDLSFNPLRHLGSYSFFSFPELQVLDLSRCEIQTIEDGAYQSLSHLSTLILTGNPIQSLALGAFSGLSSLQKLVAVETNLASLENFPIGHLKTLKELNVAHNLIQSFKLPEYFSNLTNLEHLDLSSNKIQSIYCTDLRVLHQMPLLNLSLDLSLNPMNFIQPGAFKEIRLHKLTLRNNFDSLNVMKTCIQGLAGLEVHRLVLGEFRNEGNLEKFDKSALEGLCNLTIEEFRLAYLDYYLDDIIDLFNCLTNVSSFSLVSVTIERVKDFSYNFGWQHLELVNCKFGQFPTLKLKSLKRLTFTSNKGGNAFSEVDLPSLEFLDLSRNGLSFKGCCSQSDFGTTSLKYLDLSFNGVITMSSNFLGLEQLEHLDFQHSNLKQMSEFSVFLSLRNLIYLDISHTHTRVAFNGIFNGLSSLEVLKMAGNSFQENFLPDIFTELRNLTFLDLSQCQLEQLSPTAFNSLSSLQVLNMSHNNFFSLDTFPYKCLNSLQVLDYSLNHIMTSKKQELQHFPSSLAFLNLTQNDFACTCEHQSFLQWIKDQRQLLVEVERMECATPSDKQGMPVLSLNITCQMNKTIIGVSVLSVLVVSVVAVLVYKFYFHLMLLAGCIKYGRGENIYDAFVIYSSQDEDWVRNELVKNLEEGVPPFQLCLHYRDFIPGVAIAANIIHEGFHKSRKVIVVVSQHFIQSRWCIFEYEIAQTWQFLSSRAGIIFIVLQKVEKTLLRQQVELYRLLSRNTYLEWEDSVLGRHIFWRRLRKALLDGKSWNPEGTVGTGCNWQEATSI

The molecule `Cc1cc(-c2cc3[nH]nc(N[C@@H]4CCNC[C@H]4F)c3cc2C2CC2)cc(C)n1` gave a pKa in series [1] of 6.7. In addition, the concentration for half-maximal inhibition (IC50) at Toll-like receptor 9 [2] is over 570 nM; at Toll-like receptor 9 [4] it was 390 nM; on Toll-like receptor 4, over 10 µM; on Toll-like receptor 7 it was 4.9 nM; in series [8], over 30 µM; against Cytochrome P450 3A4 it was over 25 µM. Further, in [3], the clearance amounted to 55 mL/min/kg. In series [5], this molecule came in with a Cmax/dose of 79 nM/mg/kg. For the same molecule, the concentration in series [6] is 0.4 nM. For the same molecule, the log distribution coefficient (logD) at 4 h in [7] was determined as 2.7. Besides, the Vd in series [9] was found to be 8.4 L/kg. In [10], the AUC is 304 nM·h/mg/kg.
